Like-named read-outs stand apart in the source and are kept apart here.
What was measured:
human ACCβ enzyme = molecular target: T1, human ACCβ enzyme (Homo sapiens, UniProt O00763); experiment: Human ACCβ enzyme activity / inhibition assay (radiometric); assay type: biochemical; details: for IC50: purified recombinant human ACCβ, saturating substrate concentrations, read-out: IC50 against purified ACCβ enzyme; for Effect on K0.5 of K-citrate / Effect on Vmax of the ACC enzyme reaction: titration of compound at 0.5, 1 and 2 times IC50
T1 construct: The cloning of the full length human muscle-type ACCβ cDNA and expression in HEK293 cells; made in house; host or cells: HEK293 cells (ATCC CRL-1573), plasmid pRF33D
Experimental: The cloning of the full length human muscle-type ACCβ cDNA and expression in HEK293 cells (ATCC, #CRL-1573) was performed as follows. The ACCβ cDNA was amplified by the polymerase chain reaction (PCR) and was cloned using standard recombinant DNA techniques. The PCR reaction was performed with the Expand Long Template PCR System (Roche Molecular Biochemicals, #1 681 8340) and 0.5 ng of cDNA from human skeletal muscle as template. The primers used for PCR amplification were designed on the basis of the published sequence of the human ACCβ cDNA isolated from a human liver cDNA library (Abul-Elheiga et al. J. Biol Chem. 272, 10669-10677, 1997). The sequence of the forward primer ACCB1 was 5′-[…]-3′; it includes a NheI restriction cleavage site for subcloning and a Kozak translation initiation consensus sequence preceding the ATG start codon. The sequence of the reverse primer ACCB8 was 5′-[…]-3′; it includes a stop codon and a XhoI restriction cleavage site for subcloning. The amplified DNA fragment of approximately 7.4 kb was cloned into a mammalian expression vector. The resulting plasmid isolates, pRF33A, B, C, D, and E were individually transfected in human embryonic kidney 293 cells (HEK293) using a standard lipid transfection method. Cell extracts of transfected cells were prepared in a lysis buffer containing 0.4 mg/ml digitonin and enzyme activity was determined using a radiometric ACC activity assay as described below. Plasmid pRF33D gave the highest activity and was chosen for large scale transfections of HEK293 cells and enzyme purification.
Since ACC enzyme activities in crude cell lysates were very low, enrichment of ACCβ enzyme expressed in HEK293 cells was achieved by a single anion exchange chromatography step. Cell lysates were run over a 5 ml Econo Pac High Q column (Bio-Rad, #732-0027). Bound proteins were eluted by a gradient of NaCl from 0 to 1 M in 50 mM Tris-HCl, pH 7.5, 1 mM DTT, 5% glycerol. Fractions containing high ACCβ enzyme activity were pooled and stored at −20° C.
Standard ACCβ enzyme assays, in a total volume of 100 μl, contained 50 mM HEPES-KOH, pH 7.5, 10 mM K-citrate, 10 mM MgSO4, 1 mM ATP, 0.1 mM DTT, 2% DMSO, 0.1 mg/ml fatty acid-free BSA, 0.2 mM acetyl-CoA, 2 mM KHCO3, 0.2 mM [^14C]NaHCO3 (50-60 mCi/mmol) and cell lysate or purified ACCβ enzyme. Reactions were incubated at 37° C. for 45 min. and stopped by the addition of 50 μl of 2 N HCl. Terminated reactions were incubated at 50° C. over night to evaporate non-incorporated [^14C]NaHCO3. [^14C]-labeled malonyl-CoA reaction product was quantitated by liquid scintillation counting after the addition of 20 μl of Microscint 20 (Canberra Packard, #6013621) on a TopCount NXT microplate scintillation counter (Canberra Packard).
Inhibition of ACCβ activity was determined at saturating substrate concentrations with two-fold serial dilutions of test compounds spanning a concentration range of at least two log units. IC50 values were calculated with the GraFit software (Erithacus Software Ltd.). Kinetic parameters (Km, Vmax and K0.5) were determined by varying one substrate (or allosteric effector) in a two-fold serial dilution over a concentration range of at least two log units while keeping all other substrates at constant saturating concentrations. Fitting to the Michaelis-Menten equation (for calculation of Km of substrates) and fitting to the Hill equation (for calculation of K0.5of the allosteric activator K-citrate) was done with the GraFit software. To determine the mode of action of Soraphens, determinations of Km for ATP and acetyl-CoA and of K0.5 for K-citrate were repeated in the absence and in the presence of the three different Soraphens at 0.5, 1 and 2 times their IC50 and the data were fitted to the equation for non-competitive inhibition with the GraFit software.

HepG2 cells = experiment: Fatty acid (palmitate) oxidation assay with human liver hepatoma cells HepG2; assay type: cell-based; details: for Stimulation of palmitate / fatty acid oxidation (in words): HepG2
Experimental: For routine passaging, HepG2 cells (American Type Culture Collection, ATCC) were grown in T75 flasks (Falcon, #353136) in 15 ml of Dulbecco's modified Eagle medium (DMEM, Sigma, #D5796), containing 10% heat inactivated fetal bovine serum (FBS, Summit Biotechnology, #S-100-05) and 1% Penicillin/Streptomycin (Sigma, #P4333). […] The cells were passaged once per week by trypsinization and an additional change of medium was done after 3 to 4 days after passaging.

differentiated L6 cells [1] = tested on: differentiated L6 cells;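 further: differentiated rat L6 myotubes fed [14C]-palmitate, with oxidation read as 14CO2 trapped on filters and counted by liquid scintillation after 3 to 8 h at 37 °C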
Experimental: (§1) Labeling medium to assay oxidation of fatty acids was composed of glucose-deficient DMEM containing 3.7 g/l NaHCO3, 25 mM HEPES-NaOH, 0.5% fatty acid-free bovine serum albumin (BSA), 0.1% ethanol, 0.5% DMSO (or test compounds dissolved in DMSO), 5 mM D-glucose, and 16 μM unlabeled palmitate plus 0.25 μM [U-^14C]palmitate (approx. 800 mCi/mmol). After the addition of labeling medium, the cell culture plates were sealed air tight with self adhesive Super Sealing Film (Life Systems Design, #02-2796-3001). Before sealing, twelve 1 cm^2 squares of filter paper (Schleicher & Schuell, #GB004) pretreated with 50 μl of highly basic tissue solubilizer solution NCSII (Amersham Pharmacia, #NNCS-502) were attached to the lower side of the sealing film. Upon sealing of the tissue culture plates, the filters were positioned in the center above each well, and served to capture the evolving ^14CO2 that was produced by the cells in each individual well. After an incubation between 3 to 8 hours at 37° C., the filters were removed from the sealing film and the captured ^14CO2 was quantitated by liquid scintillation counting with 2 ml of scintillation cocktail BCS-NA (Amersham Pharmacia, #NBCS204) in a Tri-Carb liquid scintillation counter (Canberra Packard).
(§2) Cultivation of the differentiating rat muscle cell line L6 for fatty acid oxidation assays was performed as follows. For routine passaging, L6 cells (ATCC) were grown in T75 flasks in 15 ml of MEM Alpha medium (Gibco BRL Life Technologies, #22571-038), containing 10% heat inactivated FBS and 1% antibiotic/antimycotic solution (Gibco BRL Life Technologies, #15240-062). Incubation was done at 37° C. in a humid atmosphere containing 5% CO2. The cells were passaged twice per week by trypsinization.
(§3) For fatty acid oxidation assays, each well of a 12-well tissue culture plate was seeded with 2 to 5×10^4 cells in 1 ml of MEM Alpha, 10% FBS, 1% antibiotic/antimycotic solution. After 3 days, medium was exchanged by 1 ml of the same, fresh medium. After 5 days, medium was exchanged again, this time by 1 ml of medium containing 2% FBS, 1% antibiotic/antimycotic solution. After 7 days, the cells were fully differentiated and formed large multinucleated myotubes. At this stage, the medium was replaced by 1 ml of glucose-deficient DMEM supplemented with 3.7 g/l NaHCO3 and 25 mM HEPES-NaOH followed by a starvation period of 2 to 6 hours at 37° C. […] The compounds were tested at three different concentrations (2, 0.2 and 0.02 μM) on differentiated L6 cells.

differentiated L6 cells [2] = experiment: Fatty acid (palmitate) oxidation assay with differentiated rat L6 muscle cells;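 further: differentiated rat L6 myotubes fed [14C]-palmitate, with oxidation read as 14CO2 trapped on filters and counted by liquid scintillation after 3 to 8 h at 37 °C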
Experimental: as §1, §2, §3

T1 sequence (O00763 whole entry): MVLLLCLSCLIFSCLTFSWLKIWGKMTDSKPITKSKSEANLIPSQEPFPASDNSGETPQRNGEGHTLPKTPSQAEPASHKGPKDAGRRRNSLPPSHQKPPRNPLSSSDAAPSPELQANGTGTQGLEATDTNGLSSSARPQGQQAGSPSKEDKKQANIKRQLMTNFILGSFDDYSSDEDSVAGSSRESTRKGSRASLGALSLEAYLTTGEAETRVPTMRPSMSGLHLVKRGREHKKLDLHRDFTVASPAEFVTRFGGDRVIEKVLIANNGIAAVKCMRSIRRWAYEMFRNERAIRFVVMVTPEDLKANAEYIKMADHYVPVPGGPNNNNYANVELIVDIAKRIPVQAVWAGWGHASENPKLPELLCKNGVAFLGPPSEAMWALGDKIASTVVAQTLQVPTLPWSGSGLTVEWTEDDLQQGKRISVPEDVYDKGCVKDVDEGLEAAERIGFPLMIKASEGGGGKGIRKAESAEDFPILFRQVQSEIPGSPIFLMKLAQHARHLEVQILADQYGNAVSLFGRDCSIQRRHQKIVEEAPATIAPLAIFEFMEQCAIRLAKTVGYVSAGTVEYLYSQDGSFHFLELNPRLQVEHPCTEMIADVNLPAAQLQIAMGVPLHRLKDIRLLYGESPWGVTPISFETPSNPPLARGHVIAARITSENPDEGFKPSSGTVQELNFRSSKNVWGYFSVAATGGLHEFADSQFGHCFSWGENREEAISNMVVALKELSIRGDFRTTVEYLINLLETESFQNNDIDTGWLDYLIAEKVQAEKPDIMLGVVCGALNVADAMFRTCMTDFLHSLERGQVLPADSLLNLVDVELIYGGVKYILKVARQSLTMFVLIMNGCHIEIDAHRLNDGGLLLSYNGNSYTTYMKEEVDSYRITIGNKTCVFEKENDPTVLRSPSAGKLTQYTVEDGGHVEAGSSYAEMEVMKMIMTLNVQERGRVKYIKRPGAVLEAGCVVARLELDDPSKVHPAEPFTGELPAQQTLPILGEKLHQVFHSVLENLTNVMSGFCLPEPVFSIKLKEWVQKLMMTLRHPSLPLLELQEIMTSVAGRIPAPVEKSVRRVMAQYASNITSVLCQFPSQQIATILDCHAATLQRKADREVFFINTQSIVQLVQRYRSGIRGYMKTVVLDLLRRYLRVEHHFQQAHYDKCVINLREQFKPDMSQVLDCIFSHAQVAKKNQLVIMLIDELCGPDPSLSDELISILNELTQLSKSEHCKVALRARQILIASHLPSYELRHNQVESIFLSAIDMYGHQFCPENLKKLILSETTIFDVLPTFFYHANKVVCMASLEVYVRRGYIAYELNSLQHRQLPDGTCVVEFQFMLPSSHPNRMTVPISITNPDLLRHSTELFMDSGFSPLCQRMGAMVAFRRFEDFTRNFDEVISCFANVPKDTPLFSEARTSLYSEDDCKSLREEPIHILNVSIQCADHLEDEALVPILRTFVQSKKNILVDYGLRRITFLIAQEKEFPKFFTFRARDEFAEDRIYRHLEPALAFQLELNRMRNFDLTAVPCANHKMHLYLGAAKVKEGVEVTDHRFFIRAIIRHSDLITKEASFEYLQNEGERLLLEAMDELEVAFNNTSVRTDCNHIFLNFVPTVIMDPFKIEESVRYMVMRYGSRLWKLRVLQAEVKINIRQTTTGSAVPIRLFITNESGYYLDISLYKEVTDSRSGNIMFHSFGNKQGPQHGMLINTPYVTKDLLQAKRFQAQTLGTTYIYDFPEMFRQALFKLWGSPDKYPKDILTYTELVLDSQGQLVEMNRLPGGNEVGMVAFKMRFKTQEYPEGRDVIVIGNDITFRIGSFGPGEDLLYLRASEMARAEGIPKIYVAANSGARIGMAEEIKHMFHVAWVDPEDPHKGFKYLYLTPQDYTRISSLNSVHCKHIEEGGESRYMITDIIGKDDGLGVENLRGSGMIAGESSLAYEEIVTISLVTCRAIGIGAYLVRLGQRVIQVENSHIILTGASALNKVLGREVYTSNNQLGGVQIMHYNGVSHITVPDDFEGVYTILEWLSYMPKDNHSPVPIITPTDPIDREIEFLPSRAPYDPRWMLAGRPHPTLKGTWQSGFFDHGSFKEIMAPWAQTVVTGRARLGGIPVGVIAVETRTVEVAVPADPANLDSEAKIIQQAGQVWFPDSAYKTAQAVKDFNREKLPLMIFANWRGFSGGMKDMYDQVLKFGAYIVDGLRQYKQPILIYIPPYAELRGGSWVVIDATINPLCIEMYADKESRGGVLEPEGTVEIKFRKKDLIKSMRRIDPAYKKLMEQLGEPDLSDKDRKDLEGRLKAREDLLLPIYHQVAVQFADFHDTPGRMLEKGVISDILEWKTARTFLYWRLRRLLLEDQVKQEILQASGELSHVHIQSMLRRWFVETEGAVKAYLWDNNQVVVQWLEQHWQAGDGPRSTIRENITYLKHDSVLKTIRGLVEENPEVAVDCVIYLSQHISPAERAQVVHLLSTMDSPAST

With CO[C@@H]1[C@@H](O)[C@H](C)[C@H]2OC1(O)[C@H](C)C(=O)O[C@H](c1ccccc1)CCCC[C@H](O)[C@H](O)/C=C/[C@@H]2C [Cpd (Ib), Soraphen A 4-α] the IC50 (human ACCβ enzyme) was 0.2 µM, the “Effect on K0.5 of K-citrate” value (human ACCβ enzyme) was “did not change” and the “Effect on Vmax of the ACC enzyme reaction” value (human ACCβ enzyme) was “dose-dependent decrease”. The “Fold stimulation over palmitate oxidation rate in the absence of test compounds” value (from here on “Fold stimulation … of test compounds”) (HepG2 cells; HepG2, 10 μM) was 2.8 fold, the Palmitate oxidation rate (HepG2 cells; HepG2, 10 μM) was 10.8 +/− 0.4 pmol · h^−1 · well^−1 and the Fold stimulation (differentiated L6 cells [1]; L6, Table 2, 0.02 μM) was 1.0 fold. For the same compound, the Palmitate oxidation rate (differentiated L6 cells [1]; L6, Table 2, 0.02 μM) was 8.8 +/− 0.3 pmol · h^−1 · well^−1, the Fold stimulation (differentiated L6 cells [1]; L6, Table 2, 0.2 μM) was 1.1 fold and the Palmitate oxidation rate (differentiated L6 cells [1]; L6, Table 2, 0.2 μM) was 10.0 +/− 1.4 pmol · h^−1 · well^−1. For the same compound, the Fold stimulation (differentiated L6 cells [1]; L6, Table 2, 2 μM) was 1.5 fold and the Palmitate oxidation rate (differentiated L6 cells [1]; L6, Table 2, 2 μM) was 13.5 +/− 1.4 pmol · h^−1 · well^−1.

CO[C@H]1CC(O)CC[C@@H](c2ccccc2)OC(=O)[C@@H](C)C2(O)O[C@H]([C@@H](C)[C@H](O)[C@H]2OC)[C@@H](C)/C=C/[C@H]1O (stereo partly drawn) [Cpd (Ic), Soraphen B 2-α] was tested, and the IC50 (human ACCβ enzyme) was 1.75 µM, the “Effect on K0.5 of K-citrate” value (human ACCβ enzyme) was “did not change” and the “Effect on Vmax of the ACC enzyme reaction” value (human ACCβ enzyme) was “dose-dependent decrease”. The “Fold stimulation … of test compounds” value (HepG2 cells; HepG2, 10 μM) was 1.6 fold, the Palmitate oxidation rate (HepG2 cells; HepG2, 10 μM) was 6.1 +/− 0.4 pmol · h^−1 · well^−1 and the Fold stimulation (differentiated L6 cells [2]; L6, Table 2, 0.02 μM) was 0.9 fold. For the same compound, the Palmitate oxidation rate (differentiated L6 cells [2]; L6, Table 2, 0.02 μM) was 8.2 +/− 0.5 pmol · h^−1 · well^−1, the Fold stimulation (differentiated L6 cells [2]; L6, Table 2, 0.2 μM) was 1.0 fold and the Palmitate oxidation rate (differentiated L6 cells [2]; L6, Table 2, 0.2 μM) was 8.8 +/− 0.5 pmol · h^−1 · well^−1. The Fold stimulation (differentiated L6 cells [2]; L6, Table 2, 2 μM) was 1.1 fold and the Palmitate oxidation rate (differentiated L6 cells [2]; L6, Table 2, 2 μM) was 10.2 +/− 1.3 pmol · h^−1 · well^−1.

CCCC(=NOCC)C1=C(O)CC(C2CCCSC2)CC1=O (stereo not shown) [Cycloxidim, 2-(1-Ethoxyimino-butyl)-3-hydroxy-5-(tetrahydro-thiopyran-3-yl)-cyclohex-2-enone] was tested, and the “Stimulation of palmitate / fatty acid oxidation (in words)” value (HepG2 cells) was “did not stimulate”, the “Fold stimulation … of test compounds” value (HepG2 cells; HepG2, 25 μM) was 0.9 fold and the Palmitate oxidation rate (HepG2 cells; HepG2, 25 μM) was 3.5 +/− 0.2 pmol · h^−1 · well^−1.

With CC(Oc1ccc(Oc2ccc(Cl)cc2Cl)cc1)C(=O)O (stereo not shown) [Diclofop, 2-[p-(2,4-Dichlorophenoxy)phenoxy]propionic acid] the “Stimulation of palmitate / fatty acid oxidation (in words)” value (HepG2 cells) was “did not stimulate”, the “Fold stimulation … of test compounds” value (HepG2 cells; HepG2, 25 μM) was 0.8 fold and the Palmitate oxidation rate (HepG2 cells; HepG2, 25 μM) was 3.1 +/− 1.3 pmol · h^−1 · well^−1.

CC(Oc1ccc(Oc2ncc(C(F)(F)F)cc2Cl)cc1)C(=O)O (stereo not shown) [Haloxyfop, 2-[4-(3-chloro-5-trifluormethyl-2-pyridinyloxy)phenoxy] propionic acid] was tested, and the “Stimulation of palmitate / fatty acid oxidation (in words)” value (HepG2 cells) was “did not stimulate”, the “Fold stimulation … of test compounds” value (HepG2 cells; HepG2, 25 μM) was 1.0 fold and the Palmitate oxidation rate (HepG2 cells; HepG2, 25 μM) was 3.6 +/− 0.4 pmol · h^−1 · well^−1.

CCCCCCCCCCCCCCOc1ccc(C(=O)O)o1 [TOFA, 5-(Tetradecyloxy)-2-furoic acid, reference compound] was tested, and the “Fold stimulation … of test compounds” value (HepG2 cells; HepG2, 25 μM) was 2.1 fold, the Palmitate oxidation rate (HepG2 cells; HepG2, 25 μM) was 8.1 +/− 0.7 pmol · h^−1 · well^−1 and the Fold stimulation (differentiated L6 cells [2]; L6, Table 3, 0.25 μM) was 1.1 fold. The Palmitate oxidation rate (differentiated L6 cells [2]; L6, Table 3, 0.25 μM) was 5.8 +/− 0.4 pmol · h^−1 · well^−1, the Fold stimulation (differentiated L6 cells [2]; L6, Table 3, 2.5 μM) was 1.5 fold and the Palmitate oxidation rate (differentiated L6 cells [2]; L6, Table 3, 2.5 μM) was 8.0 +/− 0.7 pmol · h^−1 · well^−1. For the same compound, the Fold stimulation (differentiated L6 cells [2]; L6, Table 3, 25 μM) was 1.3 fold, the Palmitate oxidation rate (differentiated L6 cells [2]; L6, Table 3, 25 μM) was 7.2 +/− 0.3 pmol · h^−1 · well^−1 and the “Maximal stimulation of palmitate oxidation” value (differentiated L6 cells [2]; differentiated L6 cells, up to 25 μM) was 1.5 fold.

Reference: patent US20030144345A1, “Treatment of metabolic diseases with soraphen derivatives” (priority 2001, published 2003)
